From PubChem BioAssay (NCI)
Values joined by “and” are separate entries in the source; they are usually repeats but may differ in a detail not shown here. Equal entries are not always repeated.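 Briefly, cells in 96-well plates were exposed to five compound concentrations for 48 h, and endpoints were estimated by linear interpolation. GI50: concentration for 50% inhibition of growth. TGI marks complete inhibition of growth.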

Legend:
Experiment in all cases: inhibition of tumour cell growth, NCI panel, 48 h
[1] = system: TK-10 renal
[2] = system: MALME-3M melanoma
[3] = system: UACC-257 melanoma
[4] = system: NCI-H23 lung
[5] = system: HOP-62 NSCLC
[6] = system: HOP-92 NSCLC
[7] = system: SW-620 colon
[8] = system: 786-0 renal
[9] = system: OVCAR-5 ovarian
[10] = system: DU-145 prostate

Row | SMILES | GI50 [1] | TGI [1] | GI50 [2] [µM] | TGI [2] | GI50 [3] | TGI [3] [µM] | GI50 [4] | TGI [4] | GI50 [5] | TGI [5] | GI50 [6] [µM] | TGI [6] | GI50 [7] | TGI [7] | GI50 [8] | TGI [8] [µM] | GI50 [9] | TGI [9] | GI50 [10] | TGI [10] [µM]
1 | COc1ccc2c(O)c(/C=C3\N=Nc4ncccc43)oc2c1C[C@H]1CCNC[C@H]1F | 0.479 µM | 9.13 µM | 1.61 | 5.15 µM | 2.66 µM | 10.2 | 0.475 µM | 4.7 µM | 0.409 µM | 3.94 µM | 2.39 | 11.3 µM | 0.291 µM | 2.22 µM | 0.241 µM | 1.61 | 0.479 µM | 24.6 µM | 0.753 µM | 12
2 | COc1cc(/C=C2\CCCC3C2=Nc2ccccc2NC3c2cc(OC)c(OC)c(OC)c2)cc(OC)c1OC (stereo not given) | 3.49 µM | 17.7 µM | 1.56 | 6.56 µM | 1.3 µM | 6.77 | 2.15 µM | 13.8 µM | 1.86 µM | 8.4 µM | 1.83 | 9.84 µM | 1.6 µM | 6.77 µM | 2.55 µM | 8 | 3.68 µM | 11.9 µM | 1.87 µM | 6.8
3 | C[C@@H]1[C@H]2[C@H](C=C3[C@@H]4CC[C@H]5Cc6nc7c(nc6C[C@]5(C)[C@H]4C[C@@H](O)[C@@]32C)C[C@@H]2CC[C@H]3C4=C[C@@H]5O[C@@]6(CC[C@](C)(CO)O6)[C@@H](C)[C@@]5(O)[C@@]4(C)[C@H](O)C[C@@H]3[C@@]2(C)C7)O[C@]12CCC(C)(C)O2 | 13.3 µM | 72.5 µM | 1.58 | 22.7 µM | 13.9 µM | 99.2 | 1.61 µM | 23.1 µM | 0.861 µM | 5.73 µM | 0.716 | 13.3 µM | 0.711 µM | 7.92 µM | 0.148 µM | 0.752 | 1.22 µM | 19.6 µM | 2.87 µM | 37.2
4 | Nc1ccc(-c2ccc(Nc3cc(S(=O)(=O)O)c(N)c4c3C(=O)c3ccccc3C4=O)cc2)c(S(=O)(=O)O)c1 |  | > 100 µM |  | > 100 µM |  | > 100 |  | > 100 µM |  | > 100 µM |  | > 100 µM |  | > 100 µM |  | > 100 |  | > 100 µM |  | > 100
5 | O=C1c2ccc3c4c(ccc(c24)C(=O)N1CCCNCc1ccccc1)C(=O)N(CCCNCc1ccccc1)C3=O | 0.119 µM | 0.413 µM | 0.152 | 0.298 µM | 0.199 µM | 0.386 | 0.18 µM | 0.42 µM | 0.232 µM | 0.772 µM | 0.199 | 0.585 µM | 0.0758 µM | 0.326 µM | 0.251 µM | 0.837 | 0.233 µM | 0.648 µM | 0.156 µM | 0.297
6 | O=C1OCC2=C1C(c1cccc(C(F)(F)F)c1)c1cc3c(cc1N2CCO)OCO3 (stereo not given) | 10.1 µM | > 50 µM | 2.67 | > 50 µM | > 50 µM | > 50 | 2.72 µM | > 50 µM | 1.97 µM | > 50 µM | 2.03 | > 50 µM | 0.84 µM | > 50 µM | 1.19 µM | > 50 | 2.19 µM | > 50 µM | 1.72 µM | > 50
7 | Fc1c[c-]c(-c2ccccn2)c(F)c1.[CH3-].[Pt+2].c1ccc([PH+](c2ccccc2)c2ccccn2)cc1 | 3.59 µM | 12.9 µM | 1.35 | 2.81 µM | 1.67 µM | 5.07 | 1.57 µM | 3.64 µM | 4.16 µM | 44.2 µM | 1.18 | 2.68 µM | 1.92 µM | 4.55 µM | 1.93 µM | 4.03 | 1.72 µM | 3.63 µM | 1.79 µM | 3.92
8 | CC(C)(C)OC(=O)N1CC(Cn2cc(C(F)(F)F)c3c(Cl)ncnc32)C1 | 24.6 µM | 62.5 µM | 12.4 | 26.6 µM | 2.2 µM | 5.43 | 1.84 µM | 3.58 µM | 1.95 µM | 3.93 µM | 4.5 | 21.4 µM | 3.3 µM | 10.6 µM | 16.8 µM | 36.7 | 20.5 µM | 57.5 µM | 1.79 µM | 3.18
9 | c1ccc(CCCNc2nnnc3ccccc23)cc1 |  | > 100 µM |  | > 100 µM |  | > 100 |  | > 100 µM |  | > 100 µM |  | > 100 µM |  | > 100 µM |  | > 100 |  | > 100 µM |  | > 100
10 | CN(C)CCN1C(=O)c2cccc3c(N)ccc(c23)C1=O | 9.15 µM | > 25 µM | 7.74 | > 25 µM | 11.2 µM | > 25 | 15 µM | > 25 µM | 22.9 µM | > 25 µM | 19.4 | > 25 µM | 10.1 µM | > 25 µM | 14.1 µM | > 25 | 15.1 µM | > 25 µM | 13.6 µM | > 25
11 | C=CC(=O)NCCOc1cccc(Nc2cc(NCCCNC(=O)C3CCC3)c(Br)cn2)c1 | 1.6 µM | 7.77 µM | 1.46 | 6.43 µM | 3.34 µM | > 25 | 1.07 µM | 7.16 µM | 0.302 µM | 4.98 µM | 0.826 | > 25 µM | 0.904 µM | 6.53 µM | 0.989 µM | > 25 | 1.84 µM | 10.5 µM | 1.21 µM | > 25
12 | S=c1nc[nH]c2nc[nH]c12 | 58 µM and 10.2 µM | > 100 µM and 549 µM and 332 µM | 5.28 | > 100 µM and 298 µM and > 750 µM | > 100 µM and 43.7 µM | > 750 | 3.11 µM and 7.97 µM | > 100 µM and 271 µM and > 750 µM | 2.09 µM and 8 µM | > 100 µM and 526 µM and > 750 µM | 0.578 | 82.2 µM and 285 µM | 3.97 µM and 15.1 µM | > 100 µM and 692 µM and > 750 µM | 0.7 µM and 5.34 µM | > 750 | 5.75 µM and > 32.3 µM | > 100 µM and 651 µM and > 750 µM | 0.825 µM and 3.96 µM | > 750
